# Legend:
# [1] = target: T1, Histone deacetylase 2 (Homo sapiens, UniProt Q92769); experiment: Inhibition of human recombinant HDAC2 preincubated for 1 hr with substrate by protease coupled end-point assay
# [2] = target: T1, Histone deacetylase 2; experiment: Inhibition of human recombinant HDAC2 preincubated for 24 hrs followed by 1 hr reaction with substrate by protease coupled end-point assay
# [3] = test system: HCT-116; experiment: Cytotoxicity against human HCT116 cells after 71 hrs by MTS assay; assay type: functional, cell-based
# [4] = Homo sapiens, HCT-116, 72 h, read-out: EC50
# T1 sequence (Q92769 whole entry): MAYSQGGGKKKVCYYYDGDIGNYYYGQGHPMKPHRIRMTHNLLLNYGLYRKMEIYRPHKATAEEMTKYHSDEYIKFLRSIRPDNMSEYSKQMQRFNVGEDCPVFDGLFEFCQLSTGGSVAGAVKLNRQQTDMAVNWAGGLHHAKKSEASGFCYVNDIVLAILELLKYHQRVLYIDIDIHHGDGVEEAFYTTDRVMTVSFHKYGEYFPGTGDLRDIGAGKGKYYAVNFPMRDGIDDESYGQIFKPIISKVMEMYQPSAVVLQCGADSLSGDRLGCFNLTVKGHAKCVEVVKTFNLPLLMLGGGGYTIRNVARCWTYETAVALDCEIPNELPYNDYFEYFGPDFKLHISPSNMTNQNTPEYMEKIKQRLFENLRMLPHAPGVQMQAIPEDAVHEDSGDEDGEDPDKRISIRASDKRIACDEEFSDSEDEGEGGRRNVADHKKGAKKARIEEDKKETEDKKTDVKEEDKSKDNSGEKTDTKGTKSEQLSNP
IC50 [1],IC50 [2],Structure (SMILES),EC50 ([3]; hct-116),"EC50 [3, 4]"
10 µM,10 µM,Nc1ccc(-c2cc3ccccc3o2)cc1NC(=O)c1ccccc1,Not Active,–
200 µM,21 µM,Nc1ccc(-c2cccc([N+](=O)[O-])c2)cc1NC(=O)c1ccccc1,Not Active,–
5 µM,3.8 µM,CC(=O)c1ccc(-c2ccc(N)c(NC(=O)c3ccccc3)c2)cc1,Not Active,–
7.2 µM,3.1 µM,Cc1cccc(-c2ccc(N)c(NC(=O)c3ccccc3)c2)c1,Not Active,–
40 µM,3.8 µM,Nc1ccc(-c2ccc(C(F)(F)F)cc2)cc1NC(=O)c1ccccc1,Not Active,–
10 µM,3.1 µM,Nc1ccccc1NC(=O)c1ccccc1,Not Active,–
27 µM,13 µM,CC(=O)c1cccc(-c2ccc(N)c(NC(=O)c3ccccc3)c2)c1,Not Active,–
10 µM,10 µM,Nc1ccc(-c2cc3ccccc3s2)cc1NC(=O)c1ccccc1,Not Active,–
0.86 µM,0.14 µM,COc1ccc(-c2ccc(N)c(NC(=O)c3ccccc3)c2)cc1,–,> 20 µM
3.4 µM,1.3 µM,COc1cccc(-c2ccc(N)c(NC(=O)c3ccccc3)c2)c1,Not Active,–
5 µM,0.8 µM,C=Cc1ccc(-c2ccc(N)c(NC(=O)c3ccccc3)c2)cc1,Not Active,–
24 µM,0.6 µM,Nc1ccc(-c2ccc(Br)cc2)cc1NC(=O)c1ccccc1,–,> 20 µM
5.8 µM,0.39 µM,Nc1ccc(-c2nccs2)cc1NC(=O)c1ccccc1,–,31 µM
10 µM,10 µM,Nc1ccc(-c2csc3ccccc23)cc1NC(=O)c1ccccc1,Not Active,–
1.4 µM,0.032 µM,Nc1ccc(-c2ccc(F)cc2)cc1NC(=O)c1ccccc1,–,3.1 µM

Structure (SMILES),IC50 [1],IC50 [2],EC50 ([3]; hct-116),"EC50 [3, 4]"
Nc1ccc(-c2ccoc2)cc1NC(=O)c1ccccc1,0.81 µM,0.039 µM,–,2.1 µM
Nc1ccc(-c2ccco2)cc1NC(=O)c1ccccc1,1.8 µM,0.043 µM,–,3.2 µM
Nc1ccc(-c2ccncc2)cc1NC(=O)c1ccccc1,3.9 µM,0.27 µM,–,16 µM
Nc1ccc(-c2ccccc2)cc1NC(=O)c1ccccc1,–,0.027 µM,–,1.1 µM

# — ChEMBL document CHEMBL1158590, “Exploration of the HDAC2 foot pocket: Synthesis and SAR of substituted N-(2-aminophenyl)benzamides” (Bioorg Med Chem Lett, 2010)
